Results taken from paper PMC10447463, “Data-mining unveils structure–property–activity correlation of viral infectivity enhancing self-assembling peptides” (Nature Communications, 2023).

Assays:
[1] = tested on: HIV-1 infection of TZM-bl cells; assay: HIV-1 infectivity enhancement assay, β-galactosidase luminescence; type: cell-based; conditions: for Infection (FigS19 A): mean of 3 replicates; for Rel-EFC: infection relative to EF-C (QCKIKQIINMWQ = 1); for Log10 Infection Rel EFC: log10 of infection relative to EF-C; for Log10 Infection Rel EF-C: HIV-1 infection of TZM-bl cells
[2] = Zeta-potential measurement; type: physicochemical; conditions: for Zeta-Pot.: zeta potential of peptide assemblies
In short: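 Zeta potentials of aggregated peptides come from electrophoretic mobility (Smoluchowski model) in 1 mM KCl after a 1 d RT incubation at 1 mg/mL in PBS, pH 7.4.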

[3] = Turbidity, derived count rate of scattered light; type: physicochemical; conditions: for Log Count Rate: log of derived count rate; for Count Rate / kcps: derived count rate of scattered light at 633 nm, 173°, from zeta-potential measurement, 0.1 mg/mL in 1 mM KCl after 1 d at 1 mg/mL in PBS, turbidity / microscopic aggregation, mean of triplicate
Experimental: 4 µL of 1 mg/mL peptide fibrils solution is added to a 20 µL, 50 µM ThT–solution in PBS. The mixture is incubated for 15 min at RT to allow binding of ThT dye with β–sheet rich structures. For reference PBS (4 µL) was added instead of peptide fibril solution. The samples were placed in black UV Star® 384 microliter well–plates (Greiner bio–one). Fluorescence spectra were recorded on an Infinite® M1000 PRO microplate reader (Tecan) at λem = 488 nm upon excitation at λex = 440 nm with 10 nm bandwidths and multiple reads per well (3×3). Measurements were repeated in triplicates and averaged with standard deviation. […] Zeta-Potential. For the determination of the surface charge of aggregated peptides zeta-potential measurements were conducted with a Zetasizer Nano ZS, Malvern Instruments. Unless stated otherwise the peptides were dissolved from DMSO (10 mg/mL) in PBS (pH 7.4) to concentration of 1 mg/mL and incubated for 1d at RT. Just before the measurement the 60 µL of the peptides were further diluted in 600 µL KCl (aq, 1 mM) in a 1 mL disposable folded capillary cells (DTS–1060, Zetasizer Nano series, Malvern). The zeta potential of the peptides was derived from the electrophoretic mobility based on the Smoluchowski formula. All measurements were averaged over two individually performed experiments and conducted in triplicates for each sample. Aggregate analysis. […] Furthermore, fluorescence microscopy was conducted by staining 1 µL preformed fibrils (1 mg/mL) with 9 µL ThT (50 µM). Brightfield microscopy was performed simultaneously to evaluate aggregation also for non ThT-active fibrils. The measurements were performed on a Leica DMi8 microscope with 10x air objective and equipped with a Leica MC170 HD camera with a filter setting λem = 527/30 nm upon excitation at λex = 480/40 nm) and processed with the Leica LASX software. To quantify size and number of microscopic aggregation of particles > 10 µm^2 at least 3 independently measured images were analyzed via the 3D object counter analysis tool of ImageJ, v 1.53f51. Sum–frequency generation. The SFG experiments were carried out with a femtosecond Ti: Sapphire amplified laser system (Spitfire Ace, Spectra–Physics, 800 nm, 40 fs, 1 kHz) with 5 W output power. We used 2 W to pump an optical parametric amplifier (TOPAS, light conversion) with a non–collinear difference frequency generation stage to generate broadband IR pulses. Another 1 W of the laser output passed through an etalon to generate narrowband visible pulses (10 cm^-1). The incident angles of the visible and IR beams were 36° and 41° with respect to the surface normal, respectively. The visible (13 µJ) and IR (5 µJ) pulses were overlapped spatially and temporally at the sample position. Subsequently, the generated SFG pulse was guided into a spectrograph (Acton SP 300i, Princeton Instruments), and detected with an EMCCD (Newton, Andor Technology). To avoid IR absorption of water vapor, we purged N2 for the measurement. All spectra were collected in the ssp (denoting s-, s- and p-polarized SFG, visible and IR, respectively) polarization combination. The spectra were normalized to the non–resonant signal taken from z–cut quartz after subtracting a background spectrum. […]
ways to determine turbidity of samples, this can be via transmittance and via scattering. Transmittance […]
as it is an easy and fast method.10,11 However, transmittance contributes not only from µm-sized aggregates but also nm-sized aggregates such as distinct fibrils, which makes hard to distinguish between fibril formation and micrometer sized aggregation. Although dynamic light scattering is a frequently applied method for determination of particle size, it cannot be conducted in solutions with anisotropic aggregates in micrometer size range, since the Stokes-Einstein relation is only applicable for homogeneous […] spherical particles.12 Further models describing scattering intensity and […]

[4] = Turbidity, derived count rate of scattered light; type: physicochemical; conditions: for Count Rate: derived count rate of scattered light (turbidity); for Log10 Count Rate: turbidity, derived count rate of scattered light, data of Figure 2D
[5] = Log10 of infection rate relative to EF-C, Figure 3A source data
[6] = infection rate relative to EF-C, log10, data of Figure 2D
[7] = infection rate relative to EF-C, log10, source data of Figure 2C
[8] = zeta-potential of peptide, source data of Figure 2C
[9] = zeta-potential of the peptide assemblies, mean, Figure 3A source data
[10] = Log10 of derived count rate of scattered light (turbidity)
[11] = log10 of derived count rate of scattered light (turbidity)
[12] = turbidity, Log10 of derived count rate of scattered light, Figure 3A source data

| Sequence | Rel-EFC ([1]; 1.3 µM peptide) | Log10 Infection Rel EFC ([1]; 1.3 µM peptide) | Log10 Infection Rel EF-C [1, 5] | Log10 Infection Rel EF-C [1, 6] | Log10 Infection Rel EF-C [1, 7] | Zeta-Pot. [2] | Zeta-Potential / mV [2, 8] [mV] | Zeta-Potential / mV [2, 9] [mV] | Log10 Count Rate [3, 10] | Count Rate / kcps [3] [kcps] | Log10 Count Rate [3, 11] | Log10 Count Rate [3, 12] | Count Rate [4] | Log10 Count Rate [4] | further results |
| --- | --- | --- | --- | --- | --- | --- | --- | --- | --- | --- | --- | --- | --- | --- | --- |
| HHHHKIKIKIKIWWWW [TM4] |  |  |  |  |  |  |  |  |  |  |  |  |  |  | Infection (FigS19 A) ([1]; 0.26 µM peptide): 15326.66667 RLU/s; Infection (FigS19 A) ([1]; 1.3 µM peptide): 20796.66667 RLU/s; Infection (FigS19 A) ([1]; 6.5 µM peptide): 12450 RLU/s; Absolute Infectivity / RLU /s (Feb2021) ([1]; Feb2021, figures match the 1.3 µM column): 20796.66667 RLU /s; n-fold to virus (Feb2021) ([1]; Feb2021, infectivity relative to virus only): 15.92; Log10 of Rel to EFC (Feb2021) ([1]; Feb2021, log10 of infectivity relative to EF-C): -0.4216; Rel-to EFC (Feb-2021) ([1]; Feb2021, n-fold infectivity relative to EF-C): 0.3788; Rel-to EFC ([1]; Fig S8 panels B, D, infectivity enhancement relative to EF-C): 0.3788; n-fold to virus ([1]; Fig S8 panels B, D, infectivity n-fold relative to virus alone): 15.92; infectivity ([1]; infectivity class (low / medium / high) of each library peptide, main list in c1-c6, same classes repeated in sub-lists of sequences containing the hydrophobicity/charge patterns P+,H0,P+,H0,P0,H0,P0, P+,H0,P0,H0,P0,H0,P0, P+,H0,P0,H0): medium; Log10 Inf. rel. to EF-C ([1]; log10 of HIV-1 infection of TZM-bl cells relative to EF-C, Fig S15 source data, asymmetric std dev errors): -0.4216; Zeta Pot. / mV [2]: 14.5 mV; Zeta category ( +1 = if > 4 mV;-1 = if < -4 mV; 0 = -4mV to 4 mV) [2]: 1 (+1 = if > 4 mV); Zeta-pot. / mV ([2]; zeta potential of peptide, Fig S15 source data): 14.5 mV; Log Count Rate ([3]; Fig S8 panels A, C, asymmetric log errors): 4.376; Log Count Rate ([3]; Fig S8 panels B, D): 4.376; Count Rate ([3]; Fig S8 panels B, D, turbidity, derived count rate of scattered light): 23756.7; Zeta Count Rate Category ([3]; category 1 / 0, no key given): 1; Zeta Count Rate / kcps ([3]; derived count rate of scattered light): 23756.66667 kcps |
| RGDKIKIQINMC | 1,07 | 0,03 | 0.03 | 0.02911 | 0.02911 | 12.2 | 13.9 | 12.2 | 3.147 | 1404 | 3.147 | 3.147 | 1404 | 3.147 | Log Infectivity ([1]; Fig. S7 panel B (plotted against CR), rounded to two decimals, Log10 infection relative to EF-C, TZM-bl cells, asymmetric std dev errors): 0.03; Log10 of Rel to EFC (Feb2021) ([1]; Log10 of infection relative to EF-C, all peptides of FigS16): 0.03 |
| CKIKQIIRGD | 0,05 | -1,31 | -1.31 | -1.311 | -1.311 | 13.2 | 13.2 | 13.2 | 3.544 | 3495 | 3.544 | 3.544 | 3495 | 3.544 |  |
